Laboratory results published in PMC9741287, “Cytotoxic and Luminescent Properties of Novel Organotin Complexes with Chelating Antioxidant Ligand” (Molecules, 2022).

Tests used:
[1] = system: HCT116 (human colorectal carcinoma); assay: MTT-test HCT116; format: cell-based
Experimental: (§1) Since the investigated compounds are designed as theranostic and cytostatic agents, their toxic impact was evaluated as a standard MTT-test. Cytotoxicity was studied on four cell lines, i.e.,—HCT116 (human colorectal carcinoma), MCF-7 (human breast cancer), A549 (human lung adenocarcinoma), and WI-38 (human fetal lung fibroblast). Obtained results appear to be unorthodox: as it is known, the introduction of an organotin moiety tends to noticeably increase compounds’ toxicity and more lipophilic ones do it better, but in the presented data pattern turns vice versa (Table 3).
(§2) HCT-116 (colon carcinoma), MCF-7 (breast adenocarcinoma), A-549 (lung adenocarcinoma) cell lines, and WI-38 (cell line composed of fibroblasts) were derived from The European Collection of Authenticated Cell Cultures (ECACC, Salisbury, UK), cultured in DMEM medium (Gibco™, Dublin, Ireland) supplemented with 10% fetal bovine serum (Gibco™, Brasilia, Brazil). The cells were cultured in an incubator at 37 °C in a humidified 5% CO2 atmosphere and subcultured two times a week.
(§3) The toxicity of compounds was studied on cultured cell lines according to standard MTT protocol.

[2] = system: MCF-7 (human breast cancer); assay: MTT-test MCF-7; format: cell-based
Experimental: as §1, §2, §3

[3] = system: A549 (human lung adenocarcinoma); assay: MTT-test A549; format: cell-based
Experimental: as §1, §2, §3

[4] = system: WI-38 (human fetal lung fibroblast); assay: MTT-test WI-38; format: cell-based
Experimental: as §1, §2, §3

[5] = system: formation of advanced glycation end products (AGEs); assay: Antiglycation activity (BSA-glucose, AGE fluorescence); format: biochemical; conditions: for Antiglycation activity, M ± SEM: 24 h at 60 °C
Experimental: The glycation reaction was carried out in a phosphate buffer solution of 0.05 M, pH 7.4. Composition of the reaction medium: 0.36 M glucose solution and 1 mg/mL BSA (fraction V). The test compounds were dissolved in 99% DMSO (final concentration in the reaction medium ~3%). The activity of compound 1 was studied in the concentration range of 1000–0.1 μM, and the activity of aminoguanidine was determined at concentrations of 10,000–1000 μM. Control samples contained an equivalent volume of solvent. The samples were incubated for 24 h at 60 °C.
Data registration was carried out by the spectrofluorimetric method, determining AGE by specific fluorescence at excitation/emission wavelengths of 370/440 nm (spectrofluorimeter M 200 PRO, TECAN Austria GmbH, Grödig, Austria).
In order to exclude false positive results for compounds suppressing AGE fluorescence due to interference, the obtained data were logarithmically normalized according to Equation (4):Fly(log) = 10^(log10(Exp)−log10(Blank)) − 1(4) where Fly(log) is the normalized AGE fluorescence intensity, log10(Exp) and log10(blank) are the decimal logarithms of the actual fluorescence levels of glycated and corresponding non-glycated samples (both containing the test compound and controls).
The activity of other compounds (both non-fluorescent and fluorescent at the wavelengths used) was expressed by the Equation (5):Fly(lin) = Exp − Blank(5) where Fly(lin) is the fluorescence intensity of AGEs, Exp and blank are the actual fluorescence levels of glycated and corresponding non-glycated samples (both those containing the test compound and controls).
Determination of activity expressed as % suppression of fluorescence of AGE, was made according to the Equation (6):% = 100 − (Fly(Exp) × 100/Fly(Contr))(6) where Fly(Exp) and Fly(Contr) are the CPG fluorescence intensity of experimental and control samples, respectively (log-normalized or non-log-normalized).

Row | Structure (SMILES) | IC50 [1] | IC50 [2] | IC50 [3] | IC50 [4] | IC50 [5] | Antiglycation activity, M ± SEM ([5]; concentration 1000 µM) | Antiglycation activity, M ± SEM ([5]; concentration 3000 µM) | Antiglycation activity, M ± SEM ([5]; concentration 10,000 µM)
1 | N.N.[Cl][Pt][Cl] [Cisplatin, reference compound] | 8.3 ± 3.5 µM | 15.5 ± 3 µM | 10.4 ± 1.5 µM | 16.3 ± 1.9 µM | – | – | – | –
2 | N=C(N)NN [Aminoguanidine, reference compound] | – | – | – | – | 5170 µM | 21.6 ± 1.8% | 39.5 ± 2.2% | 62.0 ± 2.0%
